# In patent US9175282B2, “Cellobiose 2-epimerase, its preparation and uses” (HAYASHIBARA CO., LTD., priority 2009, dated 2015):
# Entries after “also recorded” stand apart in the source; their conditions may differ. Read-outs that look alike come from different tables or passages of the source.
# Columns and labels:
# cellobiose 2-epimerase = assay: Effect of metal ions on the epimerase activity; format: biochemical, Caldicellusiruptor saccharolyticus ATCC43494; settings: for Inhibition of the epimerase activity by metal ion: 1 mM
# [1] = test system: recombinant cellobiose 2-epimerase; assay: Substrate specificity of cellobiose 2-epimerase by TLC; format: biochemical, Caldicellulosiruptor saccharolyticus ATCC43494; set-up: key to Action: −: No product is detected; ±: Some products are slightly detected; +: Some products are detected; ++: Some products are clearly detected; settings: for Action: 2% (w/w) substrate, MOPS buffer pH 8.0, 500 units/g-substrate, 60° C., 24 hours, product spot on TLC; for Action of the enzyme on the saccharide: summary of Table 3
# Experimental: Substrate specificity of the enzyme was investigated by allowing the purified preparation of the recombinant cellobiose 2-epimerase, obtained by the method of Experiment 4-4, to act on various saccharides. Substrate solutions were prepared by dissolving D-glucose, D-xylose, D-allose, D-ribose, D-galactose, D-fructose, D-mannose, D-psicose, D-tagatose, L-sorbose, L-rhamnose, L-ribose, trehalose, kojibiose, nigerose, isomaltose, neotrehalose, gentiobiose, lactose, sucrose, maltulose, palatinose, maltose, maltotriose, maltotetraose, maltopentaose, maltohexaose, maltoheptaose, cellobiose, cellotriose, cellotetraose, selaginose, isomaltosyl-glucoside, isomaltotriose, panose, isopanose, erlose, maltitol, maltotriitol, methyl-α-glucoside, methyl-β-glucoside, D-glucosamine, D-galactosamine, D-glucuronic acid, N-acetyl-glucosamine, or N-acetyl-galactosamine into MOPS buffer (pH 8.0) to give a final concentration of 2% (w/w) of saccharide and 40 mM buffer.
# Then, each of the resulting substrate solutions was further admixed with 500 units/g-substrate, on a dry solid basis, of the purified preparation of recombinant cellobiose 2-epimerase, obtained by the method in Experiment 4-4, and followed by the enzyme reaction at 60° C. for 24 hours. After stopping the reaction by heating the reaction mixture at 100° C. for 10 minutes, each reaction mixture was subjected to TLC analysis under the conditions in Experiment 1-2 to examine the saccharides in each mixture before and after the reaction. The substrate specificity of the enzyme was judged by investigating whether the spot of the reaction product except for the substrate is detected in the TLC chromatogram or not, and the degree of the strength of the visualized spot.
# [2] = test system: recombinant cellobiose 2-epimerase; assay: Isomerized saccharides formed from monosaccharides (HPLC); format: biochemical, Caldicellulosiruptor saccharolyticus ATCC43494
# Experimental: (§1) Reaction products formed from D-glucose, D-galactose, and D-mannose by the action of the cellobiose 2-epimerase of the present invention were investigated. D-Glucose, D-galactose, or D-mannose was dissolved into 50 mM acetate buffer (pH 6.0) to give a final concentration of 20% (w/v) to make into a substrate solution. To 0.1 ml of the substrate solution, 130 units/g-solid substrate for D-glucose and D-mannose (0.1 ml as the enzyme solution), or 500 units/g-solid substrate for D-galactose (0.1 ml as the enzyme solution), of the purified preparation of the recombinant cellobiose 2-epimerase, obtained by the method in Experiment 4-4, was admixed; and followed the enzyme reaction at 60° C. for 48 hours.
# After the completion of the reaction, reaction mixture was heated at 100° C. for 10 minutes to stop the reaction. Each reaction mixture was subjected to HPLC analysis for determining the product. HPLC analysis of the products in the reaction mixture was carried out under the following conditions for separating monosaccharides.
# [3] = test system: recombinant cellobiose 2-epimerase; assay: Formation of isomerized saccharides from various saccharides, effect of the amount of enzyme; format: biochemical, Caldicellulosiruptor saccharolyticus ATCC43494; settings: 10% (w/v) substrate, pH 6.0, 60° C., 72 hours
# Experimental: (§2) Each of them was dissolved into 20 mM acetate buffer (pH 6.0), admixed with the purified preparation of the recombinant cellobiose 2-epimerase, obtained by the method in Experiment 4-4, and followed the enzyme reaction under the conditions of 10% (w/v) substrate concentration, 60° C. for 72 hours. The amount of enzyme was set to 130 or 500 units/g-substrate when monosaccharide was used as the substrate, and to 1 or 130 units/g-substrate when disaccharide or trisaccharide was used as the substrate. Each reaction mixture was heated at 100° C. for 10 minutes to stop the reaction and subjected to HPLC analysis to determine the contents of isomerized saccharide, on a dry solid basis. The contents of epilactose and lactulose in the reaction mixture obtained using lactose as substrate were determined by GC analysis described in Experiment 1-2.
# [4] = ingested in rat; cited from earlier work
# [5] = Lactose 2-epimerase activity of enzyme preparations; format: biochemical; settings: purified enzyme
# Experimental: Through the specification of the present invention, the activity of the cellobiose 2-epimerase was determined as a lactose 2-epimerase activity, which catalyzes epimerization of lactose to form epilactose, using lactose as the substrate obtainable in highly purified form at low cost. The lactose 2-epimerase activity was measured as follows. To 1,000 μl of substrate solution, which contains lactose to give a final concentration of 35.1 mM and acetate buffer (pH 6.0) to give a final concentration of 20 mM of the reaction solution, 200 μl of a enzyme solution was added to give a 1,200 μl of the reaction solution, followed by reaction at 50° C. for 20 minutes. The reaction was stopped by heating for 10 minutes in a boiling water bath. Then reaction mixture was subjected to HPLC chromatography to determine the amount of epilactose produced by the reaction. The HPLC chromatography was conducted at the following conditions; […]
# Then, each seed culture broth was inoculated into 10 L of the same medium eight each in eight 11-L pressure steel bottles and cultured. […] The epimerase activity of the crude enzyme was determined to be 0.009 Unit/ml.
# The enzyme preparation purified by the above process contained 0.9 mg protein, and its activity yield was 3.4% from the crude enzyme. […] The amount of protein was measured by Lowry method using bovine serum albumin as standard.
# [6] = Optimum temperature and optimum pH of epimerase activity; format: biochemical; settings: for Optimum temperature: reacted at pH 6.0 for 20 minutes
# Experimental: Through the specification of the present invention, the activity of the cellobiose 2-epimerase was determined as a lactose 2-epimerase activity, which catalyzes epimerization of lactose to form epilactose, using lactose as the substrate obtainable in highly purified form at low cost. The lactose 2-epimerase activity was measured as follows. To 1,000 μl of substrate solution, which contains lactose to give a final concentration of 35.1 mM and acetate buffer (pH 6.0) to give a final concentration of 20 mM of the reaction solution, 200 μl of a enzyme solution was added to give a 1,200 μl of the reaction solution, followed by reaction at 50° C. for 20 minutes. The reaction was stopped by heating for 10 minutes in a boiling water bath. Then reaction mixture was subjected to HPLC chromatography to determine the amount of epilactose produced by the reaction. The HPLC chromatography was conducted at the following conditions;
# Using the purified cellobiose 2-epimerase preparation obtained by the method of Experiment 2, effects of temperature and pH on the epimerase activity were investigated according to the method of assaying the activity. The results were in FIG. 3 (optimum temperature) and FIG. 4 (optimum pH). The optimum temperature of the enzyme is 80° C. when reacted at pH 6.0 for 20 minutes. The optimum pH of the enzyme is 7.8 when reacted at 50° C. for 20 minutes.
# [7] = Substrate specificities of the cellobiose 2-epimerase (summary Table 6); format: biochemical; settings: listed as Caldicellulosiruptor saccharolyticus ATCC43494
# Experimental: as §1, §2
# The physicochemical properties and substrate specificities of the cellobiose 2-epimerase from Caldicellulosiruptor saccharolyticus ATCC43494, obtained from above experiments, were shown in Table 6 together with those of conventional cellobiose 2-epimerases from Ruminococcus albus (excerpted from Non-Patent Document 3) and Eubacterium cellosolvens (excerpted from Non-Patent Document 4).
# [8] = 500 units/g-substrate, pH 6.0, 60° C., 48 hours
# [9] = 130 units/g-substrate, pH 6.0, 60° C., 48 hours
molecule,measurement,setting,value
[Cl][Al]([Cl])[Cl] [AlCl3],Inhibition of the epimerase activity by metal ion,cellobiose 2-epimerase,inhibited
same,Relative activity (%),"cellobiose 2-epimerase; metal salt 1 mM, None = 100",45%
[Ba+2].[Cl-].[Cl-] [BaCl2],Relative activity (%),"cellobiose 2-epimerase; metal salt 1 mM, None = 100",108%
[Ca+2].[Cl-].[Cl-] [CaCl2],Relative activity (%),"cellobiose 2-epimerase; metal salt 1 mM, None = 100",107%
[Cl-].[Cl-].[Co+2] [CoCl2],Relative activity (%),cellobiose 2-epimerase,101%
[Cl][Cu][Cl] [CuCl2],Inhibition of the epimerase activity by metal ion,cellobiose 2-epimerase,almost completely inhibited
same,Relative activity (%),"cellobiose 2-epimerase; metal salt 1 mM, None = 100",1%
O=C[C@H](O)[C@@H](O)[C@@H](O)[C@H](O)CO [D-Galactose],Action,[1],±
same,Action of the enzyme on the saccharide,[1],slightly acted on
same,Action of the enzyme compared with D-glucose and D-mannose,[2],relatively weak
same,"Content (%, w/w) of product D-Tagatose",[2]; [8],"8.4 %, w/w"
same,"Content (%, w/w) of product D-Talose",[2]; [8],"10.3 %, w/w"
same,Content of isomerized saccharide in the reaction mixture (%): D-Tagatose,[3]; 500 units/g-substrate,9.2%
same,Content of isomerized saccharide in the reaction mixture (%): D-Talose,[3]; 500 units/g-substrate,11.0%
O=C[C@H](O)[C@@H](O)[C@H](O)[C@H](O)CO [D-Glucose],Action,[1],+
same,Action of the enzyme on the saccharide,[1],acted on
same,"Content (%, w/w) of product D-Fructose",[2]; [9],"3.8 %, w/w"
same,"Content (%, w/w) of product D-Mannose",[2]; [9],"20.6 %, w/w"
same,Content of isomerized saccharide in the reaction mixture (%): D-Fructose,[3]; 130 units/g-substrate,5.0%
same,Content of isomerized saccharide in the reaction mixture (%): D-Mannose,[3]; 130 units/g-substrate,20.9%
same,Content of isomerized saccharide in the reaction mixture (%): D-Fructose,[3]; 500 units/g-substrate,9.2%
same,Content of isomerized saccharide in the reaction mixture (%): D-Mannose,[3]; 500 units/g-substrate,23.3%
O=C[C@@H](O)[C@@H](O)[C@H](O)[C@H](O)CO [D-Mannose],Action,[1],+
same,Action of the enzyme on the saccharide,[1],acted on
same,"Content (%, w/w) of product D-Fructose",[2]; [9],"5.1 %, w/w"
same,"Content (%, w/w) of product D-Glucose",[2]; [9],"41.8 %, w/w"
same,Content of isomerized saccharide in the reaction mixture (%): D-Fructose,[3]; 130 units/g-substrate,6.6%
same,Content of isomerized saccharide in the reaction mixture (%): D-Glucose,[3]; 130 units/g-substrate,45.8%
O=C(O)CN(CCN(CC(=O)O)CC(=O)O)CC(=O)O [EDTA],Relative activity (%),"cellobiose 2-epimerase; metal salt 1 mM, None = 100",99%
[Cl][Fe][Cl] [FeCl2],Relative activity (%),"cellobiose 2-epimerase; metal salt 1 mM, None = 100",35%
[Cl][Fe]([Cl])[Cl] [FeCl3],Relative activity (%),"cellobiose 2-epimerase; metal salt 1 mM, None = 100",33%
[Cl][Hg][Cl] [HgCl2],Inhibition of the epimerase activity by metal ion,cellobiose 2-epimerase,almost completely inhibited
same,Relative activity (%),"cellobiose 2-epimerase; metal salt 1 mM, None = 100",1%
[Cl-].[Cl-].[Mg+2] [MgCl2],Relative activity (%),"cellobiose 2-epimerase; metal salt 1 mM, None = 100",106%
[Cl][Mn][Cl] [MnCl2],Relative activity (%),"cellobiose 2-epimerase; metal salt 1 mM, None = 100",104%
[Cl][Ni][Cl] [NiCl2],Relative activity (%),"cellobiose 2-epimerase; metal salt 1 mM, None = 100",103%
[Cl][Pb][Cl] [PbCl2],Inhibition of the epimerase activity by metal ion,cellobiose 2-epimerase,inhibited
same,Relative activity (%),"cellobiose 2-epimerase; metal salt 1 mM, None = 100",36%
[Cl-].[Cl-].[Sr+2] [SrCl2],Relative activity (%),"cellobiose 2-epimerase; metal salt 1 mM, None = 100",104%
NC(CO)(CO)CO [Tris],Relative activity (%),"cellobiose 2-epimerase; metal salt 1 mM, None = 100",93%
[Cl-].[Cl-].[Zn+2] [ZnCl2],Inhibition of the epimerase activity by metal ion,cellobiose 2-epimerase,almost completely inhibited
same,Relative activity (%),"cellobiose 2-epimerase; metal salt 1 mM, None = 100",1%
OC[C@H]1O[C@@H](O[C@H]2[C@H](O)[C@H](O)C(O)O[C@@H]2CO)[C@H](O)[C@@H](O)[C@H]1O (stereo partly drawn) [epilactose],Amount of short-chain fatty acid in the intestine,[4],increasing the amount of short-chain fatty acid in the intestine
same,Calcium absorption in the small intestine,[4],promoting calcium absorption in the small intestine
same,Plasma cholesterol level,[4],lowering the plasma cholesterol level
"cellobiose 2-epimerase of the present invention: thermostable cellobiose 2-epimerase of Caldicellusiruptor saccharolyticus ATCC43494, amino acid sequence of SEQ ID NO:10 with 390 residues (protein, listed as Caldicellulosiruptor saccharolyticus) MDITRFKEDLKAHLEEKIIPFWQSLKDDEFGGYYGYMDFNLNIDRKAQKGCILNSRILWFFSACYNVLKSEKCKEMAFHAFEFLKNKFWDKEYEGLFWSVSHKGVPVDVTKHVYVQAFGIYGLSEYYEASGDEEALHMAKRLFEILETKCKRENGYTEQFERNWQEKENRFLSENGVIASKTMNTHLHVLESYTNLYRLLKLDDVYEALEWIVRLFVDKIYKKGTGHFKVFCDDNWNELIKAVSYGHDIEASWLLDQAAKYLKDEKLKEEVEKLALEVAQITLKEAFDGQSLINEMIEDRIDRSKIWWVEAETVVGFFNAYQKTKEEKYLDAAIKTWEFIKEHLVDRRKNSEWLWKVNEDLEAVNMPIVEQWKCPYHNGRMCLEIIKRVD",Inhibition by metal ions,"cellobiose 2-epimerase; ions that inhibit the enzyme, listed as Caldicellulosiruptor saccharolyticus ATCC43494","Al^3+, Fe^2+, Fe^3+,; also recorded: Pb^2+, Cu^2+, Zn^2+,; also recorded: Hg^2+"
same,Specific activity,[5],26.9 unit/mg-protein
same,Optimum pH,[6]; reacted at 50° C. for 20 minutes,7.8
same,Optimum temperature,[6],80 °C
same,Optimum temperature,[6]; listed as Caldicellulosiruptor saccharolyticus ATCC43494,80 °C
same,Optimum temperature,[6]; listed as purified cellobiose 2-epimerase preparation,80 °C
same,Substrate specificity: Cellobiose,[7]; substrate Cellobiose,epicellobiose
same,Substrate specificity: D-Galactose,[7]; substrate D-Galactose,Forming D-talose
same,Substrate specificity: D-Glucose,[7]; substrate D-Glucose,Forming D-mannose
same,Substrate specificity: D-Mannose,[7]; substrate D-Mannose,Forming D-glucose
same,Substrate specificity: Lactose,[7]; substrate Lactose,Forming epilactose
same,Substrate specificity: Maltose,[7]; substrate Maltose,Forming epimaltose
